According to the METLIN SMRT retention time set (Domingo-Almenara et al. 2019):

Test: gradient 5% acetonitrile 3 min, to 50% in 2 min, to 85% in 15 min, held 3 min, 100 µL/min
Settings: column: Zorbax Extend-C18 2.1 x 50 mm; eluents: water / acetonitrile, 0.1% formic acid
Procedure, shortened: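 Data were gathered over 3 months by HPLC coupled to a quadrupole time-of-flight mass spectrometer, operated in positive and negative ionization mode. Mixtures of ~100 pure standards ran on a Zorbax Extend-C18 column (2.1 × 50 mm, 1.8 μm) at 100 μL/min, with water and acetonitrile each containing 0.1% formic acid and dead and dwell volumes of 40 μL and 900 μL. Retention time was read from adduct peaks picked by computer and checked manually.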

SMILES: CCN(CCNC(=O)c1ccc2[nH]c3c(c2c1)CN(C(C)=O)CC3)c1ccccc1
- RP-LC retention time: 1160 s

SMILES: CCSc1nnc(NC(=O)CSc2nccn2-c2ccc(OC)cc2OC)s1
- RP-LC retention time: 682 s

SMILES: O=C(COc1ccccc1)N1CC2CN(S(=O)(=O)c3ccc(F)cc3)CC(C1)O2
- RP-LC retention time: 846 s

SMILES: CC(=O)Nc1ccc(CCc2nc3ccc(C(=O)NC(C)CCc4ccccc4)cc3[nH]2)cc1 (stereo not given)
- RP-LC retention time: 682 s

SMILES: COC(=O)C1=C(CN2CCOCC2)NC(=O)NC1c1ccc(Cl)cc1 (stereo not given)
- RP-LC retention time: 566 s

SMILES: Cc1ccc2c(Nc3ccc(C)c(C)c3)c(C(=O)N3CCOCC3)cnc2n1
- RP-LC retention time: 593 s

SMILES: COc1ccccc1NC(=O)c1ccc(Br)cc1F
- RP-LC retention time: 1070 s

SMILES: COC(=O)c1ncn2c1C(=O)N(Cc1ccccc1C)C(C)(C(=O)NCc1ccccc1)C2 (stereo not given)
- RP-LC retention time: 735 s

SMILES: CC(NC(=O)C1CCN(CCc2cn(C)c3ncccc23)CC1)c1ccc(F)cc1 (stereo not given)
- RP-LC retention time: 616 s

SMILES: CCCCC(=O)N1CCc2c(c(C(=O)N3CCCC(C(=O)Nc4ccccc4C)C3)nn2C)C1 (stereo not given)
- RP-LC retention time: 797 s

SMILES: O=C(NCCc1c[nH]c2ccccc12)c1cc(-c2cccnc2)nc2ccccc12
- RP-LC retention time: 741 s

SMILES: CN(Cc1ccccc1)C(=O)Cn1cccc1-c1nnc(-c2ccccc2)o1
- RP-LC retention time: 940 s

SMILES: O=C(NCCN1CCCCC1)c1ccc(I)cc1
- RP-LC retention time: 678 s

SMILES: O=C(C1CCN(c2cnc3nccnc3c2)CC1)N1CCC(Cc2ccccc2)CC1
- RP-LC retention time: 889 s

SMILES: CC(CC(=O)N1CCN(c2ccccc2)CC1)S(=O)(=O)c1ccc2c(c1)CCN2C(=O)C1CC1 (stereo not given)
- RP-LC retention time: 866 s

SMILES: Cc1cc(C)n(CCNC(=O)CSCc2ccccc2)n1
- RP-LC retention time: 683 s

SMILES: CCC1CN(C(=O)N2CCC(C(=O)NCCCN3CCOCC3)CC2)c2cc(C)ccc2O1 (stereo not given)
- RP-LC retention time: 648 s

SMILES: CC(C)CN1C(=O)c2cccn2CC1CNC(=O)c1n[nH]c(=O)c2ccccc12 (stereo not given)
- RP-LC retention time: 689 s

SMILES: Cc1nc(-c2cn(C(C)C)c3ncccc23)sc1C(=O)NC1CCCC1
- RP-LC retention time: 1000 s

SMILES: CC(NC(=O)Cc1cccn1-c1ccc(F)cc1)c1ccccc1 (stereo not given)
- RP-LC retention time: 962 s

SMILES: CCOC(=O)COc1cc(-c2ccc(C)cc2)nc2ccc(NC(=O)c3ccco3)cc12
- RP-LC retention time: 778 s

SMILES: COc1ccccc1N1CCN(c2cc(SCC(=O)NCc3ccccc3Cl)ncn2)CC1
- RP-LC retention time: 908 s

SMILES: Cc1cccc(Cn2c(CN3CCC(C(=O)NC(C)C)CC3)cc3ccccc32)c1
- RP-LC retention time: 737 s

SMILES: Cn1c(=O)n(CC(=O)Nc2cccc(Cl)c2)c(=O)c2cnc(-c3ccccc3)nc21
- RP-LC retention time: 1050 s

SMILES: O=C1C(c2cccnc2)N(CC2CCCCC2)C(=O)CN1c1ccccc1 (stereo not given)
- RP-LC retention time: 771 s

SMILES: Oc1ccc2c3c1O[C@H]1c4[nH]c5ccccc5c4C[C@@]4(O)C(C2)N(CC2CC2)CCC314 (stereo not given in full)
- RP-LC retention time: 692 s

SMILES: CCN1C(=O)CN(C(=O)c2ccco2)CC12CCOCC2
- RP-LC retention time: 610 s

SMILES: CCOc1ccc(-c2nc(C3CC(=O)N(c4ccc(F)cc4)C3)no2)cc1 (stereo not given)
- RP-LC retention time: 1010 s

SMILES: O=c1ccc(-c2ccccc2)nn1CCc1nc(-c2ccccc2Br)no1
- RP-LC retention time: 965 s

SMILES: CCOC(=O)c1cc2ccsc2n1CC(=O)NCCN1CCN(C)CC1
- RP-LC retention time: 600 s

SMILES: CCc1ccccc1N1C=C(C(=O)OC)S(=O)(=O)c2ccccc21
- RP-LC retention time: 918 s

SMILES: Cc1ccc(NC(=O)Cn2nc3c(Oc4ccccc4C)nccn3c2=O)cc1F
- RP-LC retention time: 825 s

SMILES: O=C(Cn1nc2n(c1=O)CCCC2)NCc1ccccc1Cl
- RP-LC retention time: 669 s

SMILES: CCn1nnnc1NCc1ccc2c(c1)n(C)c(=O)n2C
- RP-LC retention time: 617 s

SMILES: COc1cc(OC)c(NC(=O)N2CC(c3nc(C(C)C)nn3C)C2)cc1Cl
- RP-LC retention time: 695 s

SMILES: O=C(C1=NN(CCc2ccccc2)c2ccccc2S1(=O)=O)N1CCCC1
- RP-LC retention time: 857 s

SMILES: CSc1ccc(NC(=O)NC2CCN(c3ccc(F)cc3)C2=O)cc1 (stereo not given)
- RP-LC retention time: 847 s

SMILES: CCOC(=O)C1=C(CN2CCN(C)CC2)NC(=O)NC1c1ccc(OC(C)C)cc1 (stereo not given)
- RP-LC retention time: 636 s

SMILES: COc1ccc(OCC(=O)NCc2cc(-c3cc4ccccc4o3)on2)cc1
- RP-LC retention time: 893 s

SMILES: COC(=O)c1c(NC(=O)CCc2ccc(C)o2)sc(C)c1C
- RP-LC retention time: 1110 s

SMILES: Cc1c(C(=O)N(C)C)sc2nc(-c3ccccc3)c(NC(C)(C)C)n12
- RP-LC retention time: 763 s

SMILES: CC(C)n1cnc2cc(CNC(=O)CCc3ccccc3)ccc21
- RP-LC retention time: 631 s

SMILES: Cc1ccccc1CC(=O)NC(C(=O)Nc1nc2ccccc2[nH]1)C(C)C (stereo not given)
- RP-LC retention time: 730 s

SMILES: Cc1cc(C)n(-c2ccnc(N3CCC(C(=O)N4CCN(c5ccccn5)CC4)CC3)n2)n1
- RP-LC retention time: 629 s

SMILES: COC(=O)c1cc(S(=O)(=O)N2CCCC2C(=O)NC2CCCCCC2)cn1C (stereo not given)
- RP-LC retention time: 881 s

SMILES: CCNc1cc(N2CCCC(CCC(=O)Nc3ccc4c(c3)OCCO4)C2)ncn1 (stereo not given)
- RP-LC retention time: 674 s

SMILES: CC(C)C(=O)Nc1ccc(CCc2nc3ccc(C(=O)NC4CCCC4)cc3[nH]2)cc1
- RP-LC retention time: 650 s

SMILES: CCCc1c(C(=O)O)nnn1Cc1ccc(OC)cc1
- RP-LC retention time: 710 s

SMILES: O=C(CSc1ncnc2c1[nH]c1ccc(Br)cc12)NC1CCCCC1
- RP-LC retention time: 957 s

SMILES: COc1ccc(-c2nc3cnccn3c2Nc2ccc(C(C)C)cc2)cc1OC
- RP-LC retention time: 936 s

SMILES: CC(C)n1c(=O)c(NCc2ccc(N3CCOCC3)cc2)nc2ccncc21
- RP-LC retention time: 606 s

SMILES: O=C(c1ccco1)N1CCC2(CC1)NCCc1c2[nH]c2ccccc12
- RP-LC retention time: 631 s

SMILES: COC(=O)C1C(=O)C2=C(CC1C)NC(C)=C(C(=O)OCCOC(C)C)C2c1ccccc1F (stereo not given)
- RP-LC retention time: 914 s

SMILES: CCc1cc(N2CCN(C(=O)COc3ccccc3OC)CC2)nc2nncn12
- RP-LC retention time: 601 s

SMILES: Cc1ccc(-c2nnc(CC(=O)NC3CCCC3)o2)cc1
- RP-LC retention time: 797 s

SMILES: CC(C)N1CCCn2cc(S(=O)(=O)NC3CCCCCC3)cc2C1=O
- RP-LC retention time: 817 s

SMILES: Cc1noc(C)c1CN1CCN(C(=O)Cc2ccccc2Cl)CC1
- RP-LC retention time: 563 s

SMILES: COCC1CN(C2CCC2)CC12CCN(C(=O)Cc1ccsc1)CC2 (stereo not given)
- RP-LC retention time: 608 s

SMILES: CC1(C(=O)NCc2ccccc2)CN(S(C)(=O)=O)CC(=O)N1c1ccc(F)cc1 (stereo not given)
- RP-LC retention time: 750 s

SMILES: Cc1ccc(C(=O)N2CCC3(CC2)N=C(c2cccc(Br)c2)NO3)cc1
- RP-LC retention time: 938 s

SMILES: O=C(c1cc(S(=O)(=O)N2CCCC(C(=O)N3CCc4ccccc43)C2)c[nH]1)N1CCCCCC1 (stereo not given)
- RP-LC retention time: 949 s

SMILES: CN1C(=O)[C@H]2CN(Cc3cn[nH]c3-c3ccc(F)cc3)C[C@H]2C1=O
- RP-LC retention time: 575 s

SMILES: Cn1c(=O)sc2cc(S(=O)(=O)N3CCC(C(=O)Nc4cccc(C(F)(F)F)c4)CC3)ccc21
- RP-LC retention time: 970 s

SMILES: NC(=O)c1ccc2c(c1)CCCN2C(=O)c1ccc(Cl)cc1
- RP-LC retention time: 704 s

SMILES: CC(C)CCNC(=O)C1(C)CN(S(=O)(=O)c2ccccc2)CC(=O)N1CCCN1CCCCC1 (stereo not given)
- RP-LC retention time: 674 s

SMILES: O=C(Cn1ccn2nc(-c3ccccc3)c(CO)c2c1=O)Nc1ccccc1
- RP-LC retention time: 781 s

SMILES: CC(C)c1ccc(S(=O)(=O)NCc2ccsc2)cc1
- RP-LC retention time: 954 s

SMILES: CN(CC1CCOC1)C(=O)Nc1ccc(Cl)cc1F (stereo not given)
- RP-LC retention time: 728 s

SMILES: CCn1c(C(=O)N2CCCC(C(=O)NC(C)C34CC5CC(CC(C5)C3)C4)C2)cc2sccc21 (stereo not given)
- RP-LC retention time: 1210 s

SMILES: O=C(Nc1ccc(Cl)cc1)C1CCCN(c2nc3ccccc3nc2C(F)(F)F)C1 (stereo not given)
- RP-LC retention time: 1290 s

SMILES: Cc1nc(-c2ccc(-c3noc(CNC(=O)Cc4ccc(Cl)cc4)n3)cc2)cs1
- RP-LC retention time: 990 s

SMILES: COCC(=O)N(CC(=O)N1CCc2sccc2C1COc1ccc(C(C)C)cc1)C1CC1 (stereo not given)
- RP-LC retention time: 947 s

SMILES: COc1ccc(-c2ccc3ncc4c(c3c2)n(-c2ccc(N3CCNCC3)c(C(F)(F)F)c2)c(=O)n4C)cn1
- RP-LC retention time: 630 s

SMILES: COCCCNC(=O)C1CCN(c2cncnc2N2CCCCC2)CC1
- RP-LC retention time: 606 s

SMILES: CCc1nnc(NC(=O)C2CC(=O)N(CCc3c[nH]c4ccc(Cl)cc34)C2)s1 (stereo not given)
- RP-LC retention time: 715 s

SMILES: Cc1cccc(NC(=O)C2CCN(S(=O)(=O)c3ccc4c(c3)NC(=O)C(C)O4)CC2)c1C (stereo not given)
- RP-LC retention time: 818 s

SMILES: CCOCCCNC(=O)C1CCCN(c2ccc(=O)n(-c3ccc(F)cc3)n2)C1 (stereo not given)
- RP-LC retention time: 697 s

SMILES: CCCn1cc(S(=O)(=O)Nc2cc(C)ccc2C)c2cccnc21
- RP-LC retention time: 960 s

SMILES: COc1ccc(CCc2nc3nccc(-c4ccc(OC)cc4F)n3n2)cc1
- RP-LC retention time: 941 s

SMILES: O=C(c1ccco1)N1CCN=C1N1CCN(c2cccc(Cl)c2)CC1
- RP-LC retention time: 696 s

SMILES: O=c1[nH]c(-c2cccc(O)c2)nc2sc3c(c12)CCCC3
- RP-LC retention time: 830 s

SMILES: CC(C)CCOc1cccc(OCC(=O)NCC(=O)O)c1
- RP-LC retention time: 772 s

SMILES: Cc1ncsc1C1N(C2CCN(C(=O)c3ccco3)CC2)C(=O)C12CCCC2 (stereo not given)
- RP-LC retention time: 666 s

SMILES: COCCNC(=O)Nc1nc(-c2ccccc2)c(C(C)=O)s1
- RP-LC retention time: 685 s

SMILES: Cc1ccc(-n2c(=O)n(C)c(=O)c3cc(C(=O)Nc4ccccc4)cnc32)cc1
- RP-LC retention time: 926 s

SMILES: CC1Cc2ccccc2N1C(=O)c1ccc(=O)n(CCC(=O)NC2CCCCCC2)n1 (stereo not given)
- RP-LC retention time: 861 s

SMILES: Cc1nc(CCNS(=O)(=O)c2cccc(C(F)(F)F)c2)no1
- RP-LC retention time: 807 s

SMILES: CC(C)CCNC(=O)C1(C)CN(S(=O)(=O)c2ccccc2)CC(=O)N1c1cccc(F)c1 (stereo not given)
- RP-LC retention time: 953 s

SMILES: COc1ccc(NC(=O)NC2CCN(c3cc(N4CCCC4)cnn3)C2)c(C)c1 (stereo not given)
- RP-LC retention time: 626 s

SMILES: CCc1ccc(CNC(=O)Cn2ccc3c(=O)n(CC)c(=O)n(CC)c32)cc1
- RP-LC retention time: 783 s
